Data on four molecules can be found in publication PMC4909201 (PLoS ONE, 2016).

Like-named read-outs stand apart in the source and are kept apart here.

For experiment [1], the target named is T1, 125I-thrombin binding to γA/γA-fibrin clots (Homo sapiens, UniProt P00734).
T1 construct: purchased Enzyme Research Laboratories (South Bend, IN)
Nature of the experiment: 125I-thrombin binding to γA/γA-fibrin clots. To be noted: for Ki: EC50 converted by Cheng-Prusoff with Kd of 125I-thrombin for fibrin, 10 nM 125I-thrombin, 3 μM γA/γA-fibrinogen.

The target in experiment [2] is T2, 125I-thrombin binding to γA/γ′-fibrin clots (Homo sapiens, UniProt P00734).
T2 construct: purchased Enzyme Research Laboratories (South Bend, IN)
The experiment in a line: 125I-thrombin binding to γA/γ′-fibrin clots. The settings on record: for Ki: EC50 converted by Cheng-Prusoff with Kd of 125I-thrombin for fibrin, 10 nM 125I-thrombin, 1 μM γA/γ′-fibrinogen.

The target of the next experiment is thrombin. The settings on record: thrombin inhibition; cited from earlier work.
In experiment [3] the target is T3, thrombin binding to GpIbα269-286ppp (Homo sapiens, UniProt P00734).
T3 construct: purchased Enzyme Research Laboratories (South Bend, IN)
Nature of the experiment: SPR: effect of active site inhibitors on thrombin binding to immobilized GpIbα269-286ppp. To be noted: for increase in affinity of thrombin for GpIbα269-286ppp: 2.5 μM inhibitor vs no inhibitor, p < 0.001; for Change: difference between thrombin binding without inhibitor and at saturating inhibitor. The protocol:
Between runs, flow cells were regenerated with 1 M NaCl for 30 s. […] EC50 values were determined as above. […] Binding affinities were calculated as described above.
In general terms: Surface plasmon resonance follows binding to a sensor surface in real time, without labels.

Experiment [4] addresses thrombin binding to immobilized γA/γA-fibrin (Homo sapiens, UniProt P00734). The experiment in a line: SPR: effect of active site inhibitors on thrombin binding to immobilized γA/γA-fibrin.
Experimental: (§1) Flows cells were then washed with 1 M ethanolamine for 420 s, followed by the running buffer composed of 20 mM HEPES, 150 mM NaCl, pH 7.4 (HBS) containing 0.01% Tween-80 (HBS-Tw) and 5 mM CaCl2.
(§2) Because of the fast on- and off-rates, all SPR experiments were performed at a flow rate of 25 μl/min [28]. Association times were 120 s and dissociation was monitored by washing the flow cells with HBS-Tw for 600 s. Between runs, flow cells were regenerated with a 45 s wash with HBS-Tw containing 0.5 M CaCl2.
(§3) The rapid approach to equilibrium at the low flow rate nullified any potential mass transport concerns. Nonspecific binding was accounted for by subtracting the control RU values obtained from the unmodified flow cell.
For experiment [5], the target named is thrombin binding to immobilized γA/γ′-fibrin (Homo sapiens, UniProt P00734). Nature of the experiment: SPR: effect of active site inhibitors on thrombin binding to immobilized γA/γ′-fibrin.
Experimental: as §1, §2, §3
Experiment [6] deals with thrombin binding to immobilized factor Va (Homo sapiens, UniProt P00734). The experiment in a line: SPR: effect of active site inhibitors on thrombin binding to immobilized factor Va.
Experimental: as §1, §2, §3
[7] abbreviates: maximal change in percentage of bound 125I-thrombin vs no inhibitor.
Where [8] appears, read: maximal change in percentage of bound 125I-thrombin vs no inhibitor, listed as hirudin.
The mark [9] stands for this setting: 0–5000 nM inhibitor, 250–500 nM thrombin.
[10] abbreviates: given as reduction (positive number).
Where [11] appears, read: maximal change in percentage of bound 125I-thrombin vs no inhibitor, listed as argatroban.

Broadly, the Ki is a measure of affinity in units of concentration, obtained from inhibition or displacement. Consider Hirudin, for which the Ki in experiment [1] came to 3.4 ± 0.3 nM; in experiment [2], 3.4 ± 0.1 nM. In addition, the Change is -100% in experiment [1] (setting [7]), “fully inhibited” in experiment [1] (setting [8]), -100% in experiment [2] (setting [7]) and “fully inhibited” in experiment [2] (setting [8]).
One may read the EC50 as the concentration needed to bring the measured effect to its halfway point. Higher therefore signals lower potency in that assay. `CCC1CCN(C(=O)C(CCCN=C(N)N)NS(=O)(=O)c2cccc3c(N(C)C)cccc23)CC1` (stereo not shown) [DAPA, dansylarginine N-(3-ethyl-1,5-pentanediyl)amide]: the values for the Ki (in experiment [1]; in experiment [2]; at thrombin) were 2.1 ± 0.9 nM, 19.6 ± 19.1 nM and 45 nM, respectively. Further, the EC50 was 1290 ± 32.3 nM in experiment [3] (0–5000 nM inhibitor, 250 nM thrombin); 514 ± 24 nM in experiment [4] (0–5000 nM inhibitor, 250–500 nM thrombin, Req vs inhibitor concentration); 516 ± 31 nM in experiment [5] (setting [9]); 565 ± 200 nM in experiment [6] (setting [9]). Further, the “increase in affinity of thrombin for GpIbα269-286ppp” value in experiment [3] is on record as 25–35%.
In the case of `[H]/N=C(/N)c1ccc(NCc2nc3cc(C(=O)N(CCC(=O)O)c4ccccn4)ccc3n2C)cc1` [Dabigatran, dabigatran], the Change is on record as -21.4 ± 3.3% in experiment [1], -9.4 ± 1.4% in experiment [2], 0% in experiment [3] and “no effect” in experiment [3] (listed as dabigatran). The results for the “reduction of thrombin binding at saturation” value in experiment [4] (setting [10]), in experiment [5] (setting [10]) and in experiment [6] (setting [10]) were 47.6 ± 0.4%, 28.4 ± 1.6% and 37.9 ± 3.2%, respectively.
As to `CC1CNc2c(cccc2S(=O)(=O)N[C@@H](CCCNC(=N)N)C(=O)N2CC[C@@H](C)C[C@@H]2C(=O)O)C1` (stereo partly shown) [Argatroban, argatroban], the Change entry in experiment [1] (setting [7]) is recorded as “+18.3 ± 5.0%”; in experiment [1] (setting [11]), 15–25%; in experiment [2] (setting [7]), “+26.1 ± 0.4%”; in experiment [2] (setting [11]), 15–25%; in experiment [3] it was “+17.3 ± 0.6%”; in experiment [3] (listed as argatroban) it was 17%. Moreover, in experiment [3], the “increase in affinity of thrombin for GpIbα269-286ppp” value is recorded as 25–35%.
